Active and inactive are the calls of the source.
Experiments:
[1] = molecular target: Neurotensin receptor type 1 (Homo sapiens, UniProt P30989); type: functional;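 also: Image-based confirmatory dose-response assay measuring agonist activity at NTR1; NTR1-expressing U2OS osteosarcoma cells imaged for beta-arrestin GFP spot formation; agonist potency where compounds increase beta-arrestin recruitment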
Melanocortin receptor 4 = Melanocortin receptor 4 (Homo sapiens, UniProt P32245); experiment: inhibitors of MC4R cAMP signaling – cell-based, TR-FRET, biased antagonists, dose response (AID 602298); type: functional;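 also: antagonist potency against agonist-stimulated cAMP production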
Sequence of Melanocortin receptor 4 (P32245 whole entry, the tested form may be a part): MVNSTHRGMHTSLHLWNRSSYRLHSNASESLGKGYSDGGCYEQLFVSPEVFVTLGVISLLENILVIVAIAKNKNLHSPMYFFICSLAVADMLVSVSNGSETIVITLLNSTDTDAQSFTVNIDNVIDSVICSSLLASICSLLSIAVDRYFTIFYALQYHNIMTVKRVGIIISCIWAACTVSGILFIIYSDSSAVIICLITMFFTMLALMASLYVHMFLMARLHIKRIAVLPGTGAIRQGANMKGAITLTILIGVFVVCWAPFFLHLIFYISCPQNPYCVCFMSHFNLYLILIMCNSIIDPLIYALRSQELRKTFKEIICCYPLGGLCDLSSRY

[2] = Fluorescence-based cell-based high throughput dose response assay for inhibitors of the interaction of nucleotide-binding oligomerization domain containing 2 (NOD2) and the receptor-interacting serine-threonine kinase 2 (RIPK2).; type: functional; conditions: Homo sapiens
[3] = non-specific 3'UTR reporter inhibition in Clone20-Shn3RL – cell-based, Renilla luciferase, cherry-picked, counter-screen for Shn3 inhibitor project, dose response (AID 624133); type: functional
[4] = loss of viability in HepG2 cells – cell-based, CellTiter-Glo, cherry-picked, cytotoxicity control for Shn3 inhibitor project, dose response (AID 624134); type: functional
Vero = experiment: cells; type: functional; conditions: Chlorocebus sabaeus
[5] = microbe, parasite or virus in culture; type: functional; conditions: Mycobacterium tuberculosis
[6] = cAMP pathway inhibition in counterscreen cell line – TR-FRET cAMP detection, counter-screen for MC4R biased antagonist project, dose response (AID 602305); type: functional, cell-based;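 also: U2OS cells stimulated with forskolin near its EC80 as the cAMP inducer; potency is for inhibition of forskolin-stimulated cAMP signaling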
[7] = reduction of Shn3 3'UTR-driven luciferase in osteoblasts – cell-based, Clone20 osteoblasts, firefly luciferase, cherry-picked, dose response (AID 624132); type: functional;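 also: firefly luciferase luminescence from reporter carrying the Shn3 3'UTR in osteoblasts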
[8] = molecular target: Heat shock protein HSP 90-alpha (Homo sapiens, UniProt P07900); type: functional, organism-based
[9] = molecular target: Induced myeloid leukemia cell differentiation protein Mcl-1 (Homo sapiens, UniProt Q07820); type: functional
Sequence of Induced myeloid leukemia cell differentiation protein Mcl-1 (Q07820 whole entry): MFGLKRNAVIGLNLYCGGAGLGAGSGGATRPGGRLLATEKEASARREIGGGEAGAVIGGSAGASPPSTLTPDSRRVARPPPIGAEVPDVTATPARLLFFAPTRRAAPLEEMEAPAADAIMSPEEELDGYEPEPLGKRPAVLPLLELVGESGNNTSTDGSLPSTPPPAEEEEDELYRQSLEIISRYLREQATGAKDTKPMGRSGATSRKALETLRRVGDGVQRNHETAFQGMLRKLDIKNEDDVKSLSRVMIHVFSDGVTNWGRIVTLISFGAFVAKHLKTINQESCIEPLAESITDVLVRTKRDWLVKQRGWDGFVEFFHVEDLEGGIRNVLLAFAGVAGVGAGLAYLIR

[10] = molecular target: Sentrin-specific protease 7 (Homo sapiens, UniProt Q9BQF6); type: functional;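 also: Luminescence-based dose-response confirmation of ultra-high-throughput screening hits, measuring inhibition of SENP7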
[11] = molecular target: T1, Oxysterols receptor LXR-beta (Homo sapiens, UniProt P55055); type: functional, cell-based;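 also: Cell-based luminescence dose-response assay of agonist activity at LXR, run as a confirmatory counterscreen to a daf-12 agonist screen; agonist potency from rising luciferase signal of a Gal4-LXR reporter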
T1 sequence (P55055 whole entry): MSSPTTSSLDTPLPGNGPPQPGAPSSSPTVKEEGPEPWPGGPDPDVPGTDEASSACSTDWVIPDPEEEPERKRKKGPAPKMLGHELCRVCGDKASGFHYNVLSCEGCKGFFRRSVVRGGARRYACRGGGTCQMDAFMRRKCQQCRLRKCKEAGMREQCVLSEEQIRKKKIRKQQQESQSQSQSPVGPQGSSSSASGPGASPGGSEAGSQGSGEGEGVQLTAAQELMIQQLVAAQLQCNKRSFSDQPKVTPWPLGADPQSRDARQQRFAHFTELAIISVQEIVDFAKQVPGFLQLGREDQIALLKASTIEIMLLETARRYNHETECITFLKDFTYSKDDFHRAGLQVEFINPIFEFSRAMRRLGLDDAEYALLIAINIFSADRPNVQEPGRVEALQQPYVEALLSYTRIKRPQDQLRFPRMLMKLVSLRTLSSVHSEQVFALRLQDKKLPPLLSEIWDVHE

[12] = molecular target: Sentrin-specific protease 6 (Homo sapiens, UniProt Q9GZR1); type: functional;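 also: Luminescence-based dose-response confirmatory assay of SENP6 inhibition, following up an ultra-high-throughput screen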
[13] = molecular target: T2, Sentrin-specific protease 8 (Homo sapiens, UniProt Q96LD8); type: functional;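 also: luminescence read-out of SENP8 inhibition, dose-response confirmation following an ultra-high-throughput screen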
T2 sequence (Q96LD8 whole entry): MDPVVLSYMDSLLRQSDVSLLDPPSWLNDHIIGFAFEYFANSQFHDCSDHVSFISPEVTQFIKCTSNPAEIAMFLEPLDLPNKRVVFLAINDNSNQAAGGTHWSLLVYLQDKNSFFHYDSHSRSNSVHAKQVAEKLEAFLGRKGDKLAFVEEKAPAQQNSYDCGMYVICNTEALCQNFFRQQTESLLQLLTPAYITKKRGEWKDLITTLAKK

cells [14] = experiment: cells
[15] = molecular target: T3, Mannose-6-phosphate isomerase (Homo sapiens, UniProt P34949); experiment: MPI inhibition at elevated mannose 6-phosphate – biochemical, fluorescence intensity, high mannose 6-phosphate, primary screen (AID 1220)
T3 sequence (P34949 whole entry): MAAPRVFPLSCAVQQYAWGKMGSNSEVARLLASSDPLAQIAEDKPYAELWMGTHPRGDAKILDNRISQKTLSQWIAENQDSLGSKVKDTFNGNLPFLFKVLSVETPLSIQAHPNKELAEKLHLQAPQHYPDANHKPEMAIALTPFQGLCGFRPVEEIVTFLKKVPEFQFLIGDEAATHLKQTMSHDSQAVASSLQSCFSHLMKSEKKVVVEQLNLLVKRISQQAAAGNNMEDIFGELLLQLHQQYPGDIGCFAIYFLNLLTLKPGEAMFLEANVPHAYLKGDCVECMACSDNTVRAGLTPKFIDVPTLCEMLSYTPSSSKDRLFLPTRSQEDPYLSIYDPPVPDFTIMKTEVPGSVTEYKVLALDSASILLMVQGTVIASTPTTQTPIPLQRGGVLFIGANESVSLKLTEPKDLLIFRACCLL

[16] = molecular target: T1, Oxysterols receptor LXR-beta; experiment: LXR agonists, Gal4 luciferase reporter, dose response, counter-screen for ssDAF-12 agonist project, cell-based, luminescence, HEK293, S. stercoralis campaign (AID 720737); type: functional; conditions: read-out: IC50 (the source's name)
Caspase-3 = Caspase-3 (Homo sapiens, UniProt P42574); type: functional;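 also: Dose-response selectivity test against caspase-3 for candidate inhibitors of sentrin-specific proteases (SENPs)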
[17] = Luminescence-based cell-based high throughput dose response assay to identify activators of the DAF-12 from the parasite S. stercoralis (ssDAF-12).; type: functional
[18] = molecular target: T3, Mannose-6-phosphate isomerase; experiment: MPI enzyme activity inhibition – biochemical, fluorescence intensity, coupled assay, primary screen (AID 1209)
BJ [19] = experiment: BJ-TERT-LT-ST fibroblast viability loss – cell-based, RAS-independent, luminescence, dose response (AID 1935); type: functional; conditions: Homo sapiens;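 also: BJ fibroblasts immortalized with TERT plus LT and ST oncogenes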
BJ [20] = experiment: cells; type: functional, cell-based; conditions: Homo sapiens
[21] = DRD fibroblast viability loss – cell-based, non-viral oncogenic, luminescence, dose response (AID 1934); type: functional; conditions: Homo sapiens
BJ [22] = experiment: BJ-TERT fibroblast viability loss – cell-based, RAS-independent, luminescence, dose response (AID 1933); type: functional; conditions: Homo sapiens
BJ [23] = experiment: growth inhibition of engineered Ras-driven BJ cells – cell-based, alamar blue fluorescence, cherrypicked samples, dose response (AID 2631); type: functional; conditions: Homo sapiens;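 also: confirmatory dose-response assay in RAS-dependent BJ fibroblasts engineered with TERT, LT and ST, with cytotoxicity read by fluorescence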
[24] = molecular target: T4, High affinity choline transporter 1 (Homo sapiens, UniProt Q9GZV3); experiment: human choline transporter blockers, potency – cell-based, 5-point CRC, membrane potential dye, dose response (AID 504840); type: functional
T4 sequence (Q9GZV3 whole entry): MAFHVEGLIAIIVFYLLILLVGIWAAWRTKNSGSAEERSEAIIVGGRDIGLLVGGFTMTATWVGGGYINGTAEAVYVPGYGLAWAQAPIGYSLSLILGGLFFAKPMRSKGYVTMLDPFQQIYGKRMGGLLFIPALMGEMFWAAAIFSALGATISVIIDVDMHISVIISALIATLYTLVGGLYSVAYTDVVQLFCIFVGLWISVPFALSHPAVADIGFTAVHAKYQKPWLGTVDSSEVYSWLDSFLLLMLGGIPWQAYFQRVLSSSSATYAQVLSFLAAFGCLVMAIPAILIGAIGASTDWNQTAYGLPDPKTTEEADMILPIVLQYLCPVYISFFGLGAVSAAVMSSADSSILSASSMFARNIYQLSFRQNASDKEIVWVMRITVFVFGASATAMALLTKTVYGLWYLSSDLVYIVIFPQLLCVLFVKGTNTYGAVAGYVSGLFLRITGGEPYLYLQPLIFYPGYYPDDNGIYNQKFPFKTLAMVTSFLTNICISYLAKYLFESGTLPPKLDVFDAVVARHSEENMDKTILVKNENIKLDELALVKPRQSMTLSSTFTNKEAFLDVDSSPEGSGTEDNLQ

[25] = molecular target: T4, High affinity choline transporter 1; experiment: human choline transporter blockers, potency – cell-based, 10-point CRC, membrane potential dye, dose response (AID 588401); type: functional;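 also: membrane potential dye fluorescence of choline-evoked depolarization via CHT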
[26] = molecular target: Melanin-concentrating hormone receptor 1 (Homo sapiens, UniProt Q99705); experiment: Late-stage fluorescence-based counterscreen for antagonists of the G-protein coupled receptor 7 (GPR7): cell-based dose response assay to identify antagonists of the melanin-concentrating hormone receptor 1 (MCHR1) Set 5.; type: functional
Sequence of Melanin-concentrating hormone receptor 1 (Q99705 whole entry): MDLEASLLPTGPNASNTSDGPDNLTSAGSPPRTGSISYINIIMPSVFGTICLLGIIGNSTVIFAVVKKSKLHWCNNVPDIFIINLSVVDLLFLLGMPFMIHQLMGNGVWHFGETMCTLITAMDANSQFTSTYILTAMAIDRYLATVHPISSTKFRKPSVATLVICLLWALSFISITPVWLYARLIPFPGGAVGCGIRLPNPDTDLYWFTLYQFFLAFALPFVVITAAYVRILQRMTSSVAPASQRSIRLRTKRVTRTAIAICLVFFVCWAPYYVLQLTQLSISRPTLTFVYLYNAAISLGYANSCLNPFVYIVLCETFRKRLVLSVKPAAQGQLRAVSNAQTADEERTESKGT

[27] = molecular target: Cyclin-dependent kinase 19 (Homo sapiens, UniProt Q9BWU1); experiment: Navigating the Kinome. Panel member name: CDC2L6; type: functional
Sequence of Cyclin-dependent kinase 19 (Q9BWU1 whole entry): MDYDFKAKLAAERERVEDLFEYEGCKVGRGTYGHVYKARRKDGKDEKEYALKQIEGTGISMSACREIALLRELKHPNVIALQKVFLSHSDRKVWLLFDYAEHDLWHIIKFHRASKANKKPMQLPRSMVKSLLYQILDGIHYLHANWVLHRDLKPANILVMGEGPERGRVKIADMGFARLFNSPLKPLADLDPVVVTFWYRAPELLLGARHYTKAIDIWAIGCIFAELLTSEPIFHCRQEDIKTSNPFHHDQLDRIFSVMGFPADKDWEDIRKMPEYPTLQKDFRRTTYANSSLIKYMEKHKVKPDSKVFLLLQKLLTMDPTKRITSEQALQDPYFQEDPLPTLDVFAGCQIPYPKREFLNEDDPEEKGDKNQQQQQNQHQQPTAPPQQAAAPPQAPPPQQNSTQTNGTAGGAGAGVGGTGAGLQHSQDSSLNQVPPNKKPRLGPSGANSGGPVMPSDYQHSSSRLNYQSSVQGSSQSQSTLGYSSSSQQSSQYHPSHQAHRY

[28] = molecular target: ALK tyrosine kinase receptor (Homo sapiens, UniProt Q9UM73); type: functional;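 also: ALK tested as one member of a kinase panel screen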
Sequence of ALK tyrosine kinase receptor (Q9UM73 whole entry): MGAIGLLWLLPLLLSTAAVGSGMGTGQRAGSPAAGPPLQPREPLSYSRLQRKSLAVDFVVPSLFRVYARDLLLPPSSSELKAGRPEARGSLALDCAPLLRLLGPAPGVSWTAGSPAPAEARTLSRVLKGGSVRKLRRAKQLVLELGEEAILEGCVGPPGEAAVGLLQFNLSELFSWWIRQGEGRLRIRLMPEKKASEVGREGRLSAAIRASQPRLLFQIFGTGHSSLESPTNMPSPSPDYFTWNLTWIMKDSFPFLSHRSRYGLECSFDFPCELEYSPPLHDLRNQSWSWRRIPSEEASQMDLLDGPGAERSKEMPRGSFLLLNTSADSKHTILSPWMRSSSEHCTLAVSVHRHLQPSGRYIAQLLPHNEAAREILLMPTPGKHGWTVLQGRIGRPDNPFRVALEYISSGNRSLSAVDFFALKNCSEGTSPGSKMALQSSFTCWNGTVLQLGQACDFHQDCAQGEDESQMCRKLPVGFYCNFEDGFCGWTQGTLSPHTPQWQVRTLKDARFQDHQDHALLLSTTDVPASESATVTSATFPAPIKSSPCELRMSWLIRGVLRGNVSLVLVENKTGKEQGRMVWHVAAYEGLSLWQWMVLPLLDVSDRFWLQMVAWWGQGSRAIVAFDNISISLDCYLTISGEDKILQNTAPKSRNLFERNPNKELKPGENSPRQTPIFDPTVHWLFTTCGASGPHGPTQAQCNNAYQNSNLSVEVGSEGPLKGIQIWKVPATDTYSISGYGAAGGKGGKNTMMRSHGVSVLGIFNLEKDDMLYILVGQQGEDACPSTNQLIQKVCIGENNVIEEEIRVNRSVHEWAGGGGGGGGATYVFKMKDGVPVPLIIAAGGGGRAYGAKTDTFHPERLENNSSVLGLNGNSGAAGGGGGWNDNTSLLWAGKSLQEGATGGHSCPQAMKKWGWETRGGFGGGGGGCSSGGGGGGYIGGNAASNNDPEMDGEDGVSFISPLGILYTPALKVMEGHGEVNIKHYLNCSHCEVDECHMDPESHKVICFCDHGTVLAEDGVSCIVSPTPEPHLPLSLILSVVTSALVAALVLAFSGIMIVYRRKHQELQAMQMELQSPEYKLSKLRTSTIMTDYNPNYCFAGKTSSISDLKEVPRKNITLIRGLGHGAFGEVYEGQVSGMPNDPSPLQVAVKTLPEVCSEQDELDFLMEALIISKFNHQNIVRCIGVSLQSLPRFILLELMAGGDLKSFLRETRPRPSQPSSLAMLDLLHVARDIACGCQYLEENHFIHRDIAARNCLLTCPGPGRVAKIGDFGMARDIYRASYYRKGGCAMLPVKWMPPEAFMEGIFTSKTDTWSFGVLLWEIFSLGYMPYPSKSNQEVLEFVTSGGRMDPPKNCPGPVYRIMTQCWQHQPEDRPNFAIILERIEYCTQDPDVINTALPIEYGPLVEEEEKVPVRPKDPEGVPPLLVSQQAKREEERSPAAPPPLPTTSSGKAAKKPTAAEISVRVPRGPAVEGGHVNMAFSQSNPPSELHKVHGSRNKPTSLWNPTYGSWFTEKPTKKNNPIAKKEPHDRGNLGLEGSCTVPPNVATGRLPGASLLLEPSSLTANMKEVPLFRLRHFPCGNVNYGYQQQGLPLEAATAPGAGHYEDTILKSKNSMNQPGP

[29] = molecular target: Protein disulfide-isomerase (Homo sapiens, UniProt P07237); experiment: inhibition of PDI-driven insulin aggregation – biochemical, turbidity, absorbance, cherry-picked samples, dose response (AID 602350); type: functional
Sequence of Protein disulfide-isomerase (P07237 whole entry): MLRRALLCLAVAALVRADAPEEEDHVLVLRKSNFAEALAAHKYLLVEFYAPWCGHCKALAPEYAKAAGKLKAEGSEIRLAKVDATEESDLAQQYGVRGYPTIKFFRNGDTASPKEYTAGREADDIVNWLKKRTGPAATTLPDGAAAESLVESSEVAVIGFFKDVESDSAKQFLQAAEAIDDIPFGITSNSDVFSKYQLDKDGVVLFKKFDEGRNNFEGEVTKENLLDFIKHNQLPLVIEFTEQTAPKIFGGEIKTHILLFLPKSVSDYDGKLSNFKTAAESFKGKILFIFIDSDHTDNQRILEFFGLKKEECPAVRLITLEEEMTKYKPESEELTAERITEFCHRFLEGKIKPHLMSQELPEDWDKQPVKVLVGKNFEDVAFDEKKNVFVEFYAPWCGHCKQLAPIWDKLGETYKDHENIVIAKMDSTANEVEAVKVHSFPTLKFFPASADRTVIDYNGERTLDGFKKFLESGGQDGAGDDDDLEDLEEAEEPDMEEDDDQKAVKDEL

cells [30] = type: functional, cell-based
INS1 = experiment: INS-1E survival protection against cytokine death – cell-based, luminescence, retest, dose response (AID 449756); type: functional; conditions: Rattus norvegicus;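 also: cell death triggered by IL-1 beta plus TNF-alpha plus IFN-gamma mixture; protective hits raise ATP signal compared with cytokine alone wells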
[31] = fluconazole-exposed Candida albicans growth modulators – fluorescence, retest, confirmation (AID 2467); type: functional, cell-based
[32] = NIH-3T3 fibroblast cytotoxicity, dose response, cytotoxicity control, cell-based, fluorescence, Alamar Blue, secondary assay (AID 2327); type: functional;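 also: NIH-3T3 mouse fibroblasts cultured with fluconazole at 8 µg/mL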
cells [33] = type: functional, cell-based; remark: listed apart in the source
[34] = HEK-293T viability loss after treatment – luminescence, T-cell screen hits, cytotoxicity control for TCR NF-kB inhibitor project, dose response (AID 489026); type: functional, cell-based;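 also: cells exposed to compound about 14 hours before the viability readout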
[35] = molecular target: Dual specificity tyrosine-phosphorylation-regulated kinase 1A (Rattus norvegicus, UniProt Q63470); type: biochemical, Homo sapiens
Large T antigen = Large T antigen (Simian virus 40, UniProt P03070); type: functional, Betapolyomavirus macacae;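 also: Confirmatory-stage PubChem screen for compounds that inhibit SV40 T antigen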
Sequence of Large T antigen (P03070 whole entry): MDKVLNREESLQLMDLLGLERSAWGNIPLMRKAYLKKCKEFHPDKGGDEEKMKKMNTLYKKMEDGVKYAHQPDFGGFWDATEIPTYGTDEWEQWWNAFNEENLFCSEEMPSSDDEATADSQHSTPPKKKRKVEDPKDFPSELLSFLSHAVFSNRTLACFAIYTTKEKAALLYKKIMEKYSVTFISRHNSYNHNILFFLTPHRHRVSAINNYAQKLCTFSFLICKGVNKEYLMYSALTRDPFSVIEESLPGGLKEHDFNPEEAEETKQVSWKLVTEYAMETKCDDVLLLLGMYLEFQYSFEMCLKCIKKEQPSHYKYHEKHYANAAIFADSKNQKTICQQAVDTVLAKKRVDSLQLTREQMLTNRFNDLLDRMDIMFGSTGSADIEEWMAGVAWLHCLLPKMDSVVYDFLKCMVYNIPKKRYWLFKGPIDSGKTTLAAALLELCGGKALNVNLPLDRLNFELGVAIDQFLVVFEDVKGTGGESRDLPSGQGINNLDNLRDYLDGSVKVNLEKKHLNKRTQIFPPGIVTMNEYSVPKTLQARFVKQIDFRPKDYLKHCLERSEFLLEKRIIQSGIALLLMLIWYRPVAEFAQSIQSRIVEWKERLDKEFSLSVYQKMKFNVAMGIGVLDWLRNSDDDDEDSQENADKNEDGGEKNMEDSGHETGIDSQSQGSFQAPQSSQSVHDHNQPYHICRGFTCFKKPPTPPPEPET

Sequence of Neurotensin receptor type 1 (P30989 whole entry): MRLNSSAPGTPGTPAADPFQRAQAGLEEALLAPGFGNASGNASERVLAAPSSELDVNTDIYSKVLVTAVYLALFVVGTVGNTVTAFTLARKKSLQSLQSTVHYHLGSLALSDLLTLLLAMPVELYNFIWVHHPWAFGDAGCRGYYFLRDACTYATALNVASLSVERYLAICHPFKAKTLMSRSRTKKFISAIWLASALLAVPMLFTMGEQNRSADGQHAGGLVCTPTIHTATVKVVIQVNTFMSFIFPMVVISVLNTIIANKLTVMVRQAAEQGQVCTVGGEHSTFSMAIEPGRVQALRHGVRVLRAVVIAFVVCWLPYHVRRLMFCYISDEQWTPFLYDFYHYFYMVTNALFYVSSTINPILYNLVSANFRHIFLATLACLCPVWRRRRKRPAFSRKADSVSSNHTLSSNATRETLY

O=C(c1ccc(Br)cc1)C(CN1CCOCC1)c1ccccc1 (configuration not stated)
EC50 [1]: 33 µM (inactive) | IC50 (Melanocortin receptor 4): > 64.6 µM (inactive) | IC50 [2]: 7.78 µM (active) | AC50 [3]: 10.6 µM (active) | AC50 [4]: 21.6 µM (active) | CC50 (Vero): > 25 µM (active) | CC50 [5]: > 40 µM (active) | IC50 [6]: > 64.6 µM (inactive) | AC50 [7]: 9.4 µM (active) | AC50 [8]: 2.85 µM (active)

COc1ccc(-n2nc3cc(C)c(N)c(Br)c3n2)cc1
IC50 [9]: 2.53 µM (active) | IC50 [10]: 5.86 µM (active) | EC50 [11]: > 67.5 µM (inactive) | IC50 [12]: 13.7 µM (active) | IC50 [13]: 41.3 µM (active) | EC50 (cells [14]): > 67.5 µM (inactive) | IC50 [15]: > 50 µM (not active) | EC50 [16]: > 67.5 µM (inactive) | IC50 (Caspase-3): 35.5 µM (active) | IC50 [17]: > 67.5 µM (inactive) | IC50 [18]: > 50 µM (not active)

Cc1ccccc1Nc1nc(N)nc(CCl)n1
EC50 (BJ [19]): > 150 µM (not active) | EC50 (BJ [20]): 7.39 µM (inconclusive) | EC50 [21]: 4.85 µM (active) | EC50 (BJ [22]): 0.369 µM (inconclusive) | EC50 (BJ [23]): 13.6 µM (active)

Cc1ccc(NC(=O)CN2C(=O)NC3(CCc4ccccc43)C2=O)cc1Cl (configuration not stated)
IC50 [24]: 9.3 µM (active) | IC50 [25]: 11.2 µM (active)

COc1cc(OC)cc(Oc2ccc(S(=O)(=O)N3CCCCC3)cc2[N+](=O)[O-])c1
IC50 (Melanocortin receptor 4): > 64.6 µM (inactive) | IC50 [6]: > 64.6 µM (inactive)

COc1cc(NS(=O)(=O)c2ccc(NC(=O)c3ccc(Cl)cc3Cl)cc2)ncn1
IC50 [24]: 4.47 µM (active) | IC50 [25]: 9.46 µM (active)

COc1ccc(Oc2c(Cl)cnn(C3c4ccccc4Oc4ccccc43)c2=O)cc1
IC50 [26]: > 20 µM (inactive)

Cn1cc(Nc2ncc(Br)c(Nc3ccccc3)n2)cn1
Ki [27]: 2 µM (active) | Ki [28]: 1.26 µM (active)

C[C@H]1CN([C@@H](C)CO)C(=O)c2cccc(NS(C)(=O)=O)c2O[C@@H]1CN(C)Cc1ccc(Oc2ccccc2)cc1
AC50 [29]: 19.5 µM (active)

O=C(N/N=C\c1c(O)ccc2ccccc12)c1ccc(S(=O)(=O)N2CCCCC2)cc1
EC50 (cells [30]): > 350 µM (not active) | AC50 (INS1): < 0.195 µM (active) | EC50 [31]: 0.178 µM (active) | EC50 [32]: 3.29 µM (active) | EC50 (cells [33]): 5.71 µM (active) | IC50 [34]: > 80 µM (inactive) | EC50 (BJ [23]): 0.558 µM (inconclusive)

O=c1c(OC2OC(CO)C(O)C(O)C2O)c(-c2ccc(O)c(O)c2)oc2cc(O)cc(O)c12 (configuration not stated)
AC50 [29]: 8.92 µM (active) | AC50 [35]: 7.72 µM (active) | IC50 (Large T antigen): 2.06 µM (active) | IC50 [18]: 21.3 µM (active)

From ChEMBL document CHEMBL1201862, “PubChem BioAssay data set” (2004)
